Reference: patent US20100008898A1, “CHYMOTRYPSIN FROM LUCILIA SERICATA LARVAE AND ITS USE FOR THE TREATMENT OF WOUNDS” (priority 2006, published 2010)

Tests used:
ES = ES activity after incubation with proteinase inhibitors; parameters: species or system Lucilia sericata
[1] = Chymotryptic activity, release of AMC from fluorescent peptide substrate; assay type: biochemical
Description: (§1) FIG. 10 is two graphs showing the effect of ES, trypsin, chymotrypsin and trypsin/chymotrypsin mix upon fibroblast cell adhesion to a FN-coated surface, following 24 h incubation, in relation to each enzyme concentration's proteolytic activity. Such activity was assessed by monitoring the release of 7-amino-4-methylcoumarin (AMC) from synthetic peptide substrates for a. trypsin or b. chymotrypsin. Cell adhesion was measured using a firefly luciferase-based luminescent adenosine triphosphate (ATP) assay. Results were expressed as mean % cell adhesion of the control±1SD (n=3).
(§2) Chymotryptic/tryptic activity was assessed by monitoring the release of 7-amino-4-methylcoumarin (AMC) from Suc-Ala-Ala-Pro-Phe-AMC (chymotryptic) and Tosyl-Gly-Pro-Arg-AMC (tryptic). 50 μl of each fraction was incubated with 150 μl of substrate (5 μM) diluted in PBS. Samples were incubated at 37° C. for 30 minutes after which the fluorescence was measured (excitation 365 nm, emission detection 465 nm) using a Dynex MFX microplate fluorimeter. Proteolytic activity is expressed as the number of fluorescence units emitted over 30 minutes following the deduction of a time zero reading.

fibroblasts = experiment: Fibroblast adhesion to fibronectin-coated surface (ATP assay); assay type: cell-based; settings: for cell adhesion: 1.6 μg/ml commercial trypsin
Description: as §1
The present inventors undertook a further experiment to compare the effect of the ES chymotrypsin with a commercially available bovine chymotrypsin. The effect of ES upon fibroblast adhesion to fibronectin was therefore compared with commercially available preparations of trypsin and chymotrypsin. This was achieved by seeding fibroblasts upon a fibronectin-coated surface in the presence of various concentrations of ES, commercial trypsin or commercial chymotrypsin. […] An adenosine triphosphate (ATP) assay was then applied in order to quantify the relative numbers of cells remaining upon the surface according to the concentration of ATP detected.

[2] = Tryptic activity, release of AMC from fluorescent peptide substrate; assay type: biochemical; settings: 1.6 μg/ml commercial trypsin vs 5 μg/ml ES
Description: as §1, §2

[3] = 0.1 μg/ml commercial chymotrypsin
[4] = 0.2 μg/ml commercial chymotrypsin

With N=C(N)c1ccc(CS(=O)(=O)F)cc1 [APMSF, 4-(amidinophenyl) methane sulphonyl fluoride] the “tissue remodelling and regeneration properties of the ES after incubation with inhibitor” value (ES) was “not lost/inhibited”.

For O=S(=O)(F)Cc1ccccc1 [PMSF, phenyl methanesulphonyl fluoride], the “tissue remodelling and regeneration properties of the ES after incubation with inhibitor” value (ES) was “lost or inhibited”.

In the case of chymotrypsin [commercial chymotrypsin], the “activity against chymotrypsin-specific substrate relative to ES” value [1, 3] is reported as 94.1 % of the activity of 5 μg/ml ES, the “activity against chymotrypsin-specific substrate relative to ES” value [1, 4] is reported as 204.9 % of the activity of 5 μg/ml ES and the fibroblast adhesion (fibroblasts; [3]) is reported as “no ability to modify fibroblast adhesion”. For the same molecule, the fibroblast adhesion (fibroblasts; [4]) was “no effect upon fibroblast adhesion”.

For trypsin [commercial trypsin], the “activity against trypsin-specific substrate relative to ES” value [2] was 103.2 % of the activity of ES, the cell adhesion (fibroblasts; 24 hours incubation) was 34.9 % of the control and the cell adhesion (fibroblasts; 48 hours incubation) was 24.7 % of the control.

B1: Soybean Trypsin Inhibitor (protein, UniProt P01070 25-205, looked up)
Trypsin inhibitor A: DFVLDNEGNPLENGGTYYILSDITAFGGIRAAPTGNERCPLTVVQSRNELDKGIGTIISSPYRIRFIAEGHPLSLKFDSFAVIMLCVGIPTEWSVVEDLPEGPAVKIGENKDAMDGWFRLERVSDDEFNNYKLVFCPQQAEDDKCGDIGISIDHDDGTRRLVVSKNKPLVVQFQKLDKESL
For B1, the “ability of ES to enhance fibroblast migration and degrade extra-cellular matrix proteins after incubation with inhibitor” value (ES) was “removes the ability of the ES to enhance fibroblast migration and its ability to degrade extra-cellular matrix proteins”.
